Assay results reported in patent US10508104B2, “6-hydroxy-5-(phenyl/heteroarylsulfonyl)pyrimidin-4(1H)-one as APJ agonists” (Bristol-Myers Squibb Company, priority 2016, dated 2019).

Biological target: human APJ receptor (Homo sapiens (Human), UniProt P35414)
Assay: Intracellular cAMP accumulation assay (APJ hcAMP, HTRF)
Format: cell-based
Settings: human APJ, intracellular cAMP accumulation; read-out: Human APJ cAMP EC50 Potency range
Summary of the method: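 HEK293 cells stably expressing human APJ, 5,000 per well, incubated 30 min at rt with compound, […] and 2 μM forskolin. cAMP measured by HTRF against a cAMP standard curve as inhibition of forskolin-driven production. EC50 from variable-slope sigmoidal fit.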

Sequence of human APJ receptor (P35414 whole entry): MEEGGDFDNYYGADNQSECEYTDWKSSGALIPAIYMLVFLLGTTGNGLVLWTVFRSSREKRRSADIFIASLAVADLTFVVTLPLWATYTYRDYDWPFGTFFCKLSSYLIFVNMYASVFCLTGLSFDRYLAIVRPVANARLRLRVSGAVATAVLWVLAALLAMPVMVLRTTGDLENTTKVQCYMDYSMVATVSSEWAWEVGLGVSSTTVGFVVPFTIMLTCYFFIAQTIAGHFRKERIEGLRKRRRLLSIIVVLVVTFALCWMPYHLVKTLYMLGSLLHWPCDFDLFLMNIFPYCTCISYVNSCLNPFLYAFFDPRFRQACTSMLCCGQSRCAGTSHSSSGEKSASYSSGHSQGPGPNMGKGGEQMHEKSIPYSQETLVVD

| SMILES | EC50 [nM] |
| --- | --- |
| CCCCc1nc(=O)c(S(=O)(=O)c2ccc(-c3cnc(F)cc3C)cc2)c(O)n1[C@@H](COC)c1ccccc1 [Example 152, 2-butyl-5-[4-(6-fluoro-4-methylpyridin-3-yl)benzenesulfonyl]-6-hydroxy-1-[(1R)-2-methoxy-1-phenylethyl]-1,4-dihydropyrimidin-4-one] | 0.01 to 10 |
| CCCCc1nc(=O)c(S(=O)(=O)c2ccc(-c3ccnc(C)c3)cc2)c(O)n1[C@@H](COC)c1ccccc1 [Example 153, 2-butyl-6-hydroxy-1-[(1R)-2-methoxy-1-phenylethyl]-5-[4-(2-methylpyridin-4-yl)benzenesulfonyl]-1,4-dihydropyrimidin-4-one] | 0.01 to 10 |
| CCCCc1nc(=O)c(S(=O)(=O)c2ccc(-c3cc(C)nc(C)c3)cc2)c(O)n1[C@@H](COC)c1ccccc1 [Example 154, 2-butyl-5-[4-(2,6-dimethylpyridin-4-yl)benzenesulfonyl]-6-hydroxy-1-[(1R)-2-methoxy-1-phenylethyl]-1,4-dihydropyrimidin-4-one] | 10 to 100 |
| CCCCc1nc(=O)c(S(=O)(=O)c2ccc(-c3ccncc3C)cc2)c(O)n1[C@H]1CCc2ccccc21 [Example 155, 2-butyl-1-[(1S)-2,3-dihydro-1H-inden-1-yl]-6-hydroxy-5-[4-(3-methylpyridin-4-yl)benzenesulfonyl]-1,4-dihydropyrimidin-4-one] | 0.01 to 10 |
| CCCCc1nc(=O)c(S(=O)(=O)c2ccc(-c3ccnc(C)c3)cc2)c(O)n1[C@H]1CCc2ccccc21 [Example 156, 2-butyl-1-[(1S)-2,3-dihydro-1H-inden-1-yl]-6-hydroxy-5-[4-(2-methylpyridin-4-yl)benzenesulfonyl]-1,4-dihydropyrimidin-4-one] | 100 to 300 |
| CCCCc1nc(=O)c(S(=O)(=O)c2ccc(-c3cccnc3C)cc2)c(O)n1[C@H]1CCc2ccccc21 [Example 157, 2-butyl-1-[(1S)-2,3-dihydro-1H-inden-1-yl]-6-hydroxy-5-[4-(2-methylpyridin-3-yl)benzenesulfonyl]-1,4-dihydropyrimidin-4-one] | 0.01 to 10 |
| CCCCc1nc(=O)c(S(=O)(=O)c2ccc(-c3ccncc3C)cc2)c(O)n1[C@H](C)c1cccc(C#N)c1 [Example 158, 3-[(1R)-1-{2-butyl-6-hydroxy-5-[4-(3-methylpyridin-4-yl)benzenesulfonyl]-4-oxo-1,4-dihydropyrimidin-1-yl}ethyl]benzonitrile] | 0.01 to 10 |
| CCCCc1nc(=O)c(S(=O)(=O)c2ccc(-c3ccnc(F)c3C)cc2)c(O)n1[C@H](C)c1cccc(C#N)c1 [Example 159, 3-[(1R)-1-{2-butyl-5-[4-(2-fluoro-3-methylpyridin-4-yl)benzenesulfonyl]-6-hydroxy-4-oxo-1,4-dihydropyrimidin-1-yl}ethyl]benzonitrile] | 0.01 to 10 |
| CCCCc1nc(=O)c(S(=O)(=O)c2ccc(-c3cncc(C)c3)cc2)c(O)n1[C@H]1CCc2ccccc21 [Example 160, 2-butyl-1-[(1S)-2,3-dihydro-1H-inden-1-yl]-6-hydroxy-5-[4-(5-methylpyridin-3-yl)benzenesulfonyl]-1,4-dihydropyrimidin-4-one] | 100 to 300 |
| CCCCc1nc(=O)c(S(=O)(=O)c2ccc(-c3cc(C)nc(C)c3)cc2)c(O)n1[C@H]1CCc2ccccc21 [Example 161, 2-butyl-1-[(1S)-2,3-dihydro-1H-inden-1-yl]-5-[4-(2,6-dimethylpyridin-4-yl)benzenesulfonyl]-6-hydroxy-1,4-dihydropyrimidin-4-one] | 100 to 300 |
| CCCCc1nc(=O)c(S(=O)(=O)c2ccc(-c3cncc(F)c3)cc2)c(O)n1[C@H](C)c1cccc(C#N)c1 [Example 162, 3-[(1R)-1-{2-butyl-5-[4-(5-fluoropyridin-3-yl)benzenesulfonyl]-6-hydroxy-4-oxo-1,4-dihydropyrimidin-1-yl}ethyl]benzonitrile] | 10 to 100 |
| CCCCc1nc(=O)c(S(=O)(=O)c2ccc(-c3ccc(F)nc3)cc2)c(O)n1[C@H]1CCc2ccccc21 [Example 163, 2-butyl-1-[(1S)-2,3-dihydro-1H-inden-1-yl]-5-[4-(6-fluoropyridin-3-yl)benzenesulfonyl]-6-hydroxy-1,4-dihydropyrimidin-4-one] | 0.01 to 10 |
| CCCCc1nc(=O)c(S(=O)(=O)c2ccc(-c3ccnc(F)c3C)cc2)c(O)n1[C@H]1CCc2ccccc21 [Example 164, 2-butyl-1-[(1S)-2,3-dihydro-1H-inden-1-yl]-5-[4-(2-fluoro-3-methylpyridin-4-yl)benzenesulfonyl]-6-hydroxy-1,4-dihydropyrimidin-4-one] | 0.01 to 10 |
| CCCCc1nc(=O)c(S(=O)(=O)c2ccc(-c3cccnc3C)cc2)c(O)n1[C@@H](CC)c1cccc(OC)c1 [Example 165, 2-butyl-6-hydroxy-1-[(1S)-1-(3-methoxyphenyl)propyl]-5-[4-(2-methylpyridin-3-yl)benzenesulfonyl]-1,4-dihydropyrimidin-4-one] | 0.01 to 10 |
| CCCCc1nc(=O)c(S(=O)(=O)c2ccc(-c3ccc(F)nc3)cc2)c(O)n1[C@H](C)c1cccc(C#N)c1 [Example 166, 3-[(1R)-1-{2-butyl-5-[4-(6-fluoropyridin-3-yl)benzenesulfonyl]-6-hydroxy-4-oxo-1,4-dihydropyrimidin-1-yl}ethyl]benzonitrile] | 10 to 100 |
| CCCCc1nc(=O)c(S(=O)(=O)c2ccc(-c3ccc(OC)nc3C)cc2)c(O)n1[C@H]1CCc2ccccc21 [Example 167, 2-butyl-1-[(1S)-2,3-dihydro-1H-inden-1-yl]-6-hydroxy-5-[4-(6-methoxy-2-methylpyridin-3-yl)benzenesulfonyl]-1,4-dihydropyrimidin-4-one] | 0.01 to 10 |
| CCCCc1nc(=O)c(S(=O)(=O)c2ccc(-c3cncc(F)c3)cc2)c(O)n1[C@H]1CCc2ccccc21 [Example 168, 2-butyl-1-[(1S)-2,3-dihydro-1H-inden-1-yl]-5-[4-(5-fluoropyridin-3-yl)benzenesulfonyl]-6-hydroxy-1,4-dihydropyrimidin-4-one] | 0.01 to 10 |
| CCCCc1nc(=O)c(S(=O)(=O)c2ccc(-c3ccnc(F)c3C)cc2)c(O)n1[C@@H](CC)c1cccc(OC)c1 [Example 169, 2-butyl-5-[4-(2-fluoro-3-methylpyridin-4-yl)benzenesulfonyl]-6-hydroxy-1-[(1S)-1-(3-methoxyphenyl)propyl]-1,4-dihydropyrimidin-4-one] | 0.01 to 10 |
| CCCCc1nc(=O)c(S(=O)(=O)c2ccc(-c3cnc(F)cc3C)cc2)c(O)n1[C@H]1CCc2ccccc21 [Example 170, 2-butyl-1-[(1S)-2,3-dihydro-1H-inden-1-yl]-5-[4-(6-fluoro-4-methylpyridin-3-yl)benzenesulfonyl]-6-hydroxy-1,4-dihydropyrimidin-4-one] | 0.01 to 10 |
| CCCCc1nc(=O)c(S(=O)(=O)c2ccc(-c3ccc(F)nc3C)cc2)c(O)n1[C@H]1CCc2ccccc21 [Example 171, 2-butyl-1-[(1S)-2,3-dihydro-1H-inden-1-yl]-5-[4-(6-fluoro-2-methylpyridin-3-yl)benzenesulfonyl]-6-hydroxy-1,4-dihydropyrimidin-4-one] | 0.01 to 10 |
| CCCc1nc(=O)c(S(=O)(=O)c2ccc(-c3cncc(F)c3)cc2)c(O)n1[C@@H](COC)c1ccccc1 [Example 172, 5-[4-(5-fluoropyridin-3-yl)benzenesulfonyl]-6-hydroxy-1-[(1R)-2-methoxy-1-phenylethyl]-2-propyl-1,4-dihydropyrimidin-4-one] | 0.01 to 10 |
| CCCc1nc(=O)c(S(=O)(=O)c2ccc(-c3cccnc3C)cc2)c(O)n1[C@@H](COC)c1ccccc1 [Example 173, 6-hydroxy-1-[(1R)-2-methoxy-1-phenylethyl]-5-[4-(2-methylpyridin-3-yl)benzenesulfonyl]-2-propyl-1,4-dihydropyrimidin-4-one] | 0.01 to 10 |
| CCCc1nc(=O)c(S(=O)(=O)c2ccc(-c3ccc(F)nc3)cc2)c(O)n1[C@@H](COC)c1ccccc1 [Example 174, 5-[4-(6-fluoropyridin-3-yl)benzenesulfonyl]-6-hydroxy-1-[(1R)-2-methoxy-1-phenylethyl]-2-propyl-1,4-dihydropyrimidin-4-one] | 0.01 to 10 |
| CCCc1nc(=O)c(S(=O)(=O)c2ccc(-c3ccncc3C)cc2)c(O)n1[C@@H](COC)c1ccccc1 [Example 175, 6-hydroxy-1-[(1R)-2-methoxy-1-phenylethyl]-5-[4-(3-methylpyridin-4-yl)benzenesulfonyl]-2-propyl-1,4-dihydropyrimidin-4-one] | 0.01 to 10 |
| CCCc1nc(=O)c(S(=O)(=O)c2ccc(-c3ccnc(F)c3C)cc2)c(O)n1[C@@H](COC)c1ccccc1 [Example 176, 5-[4-(2-fluoro-3-methylpyridin-4-yl)benzenesulfonyl]-6-hydroxy-1-[(1R)-2-methoxy-1-phenylethyl]-2-propyl-1,4-dihydropyrimidin-4-one] | 0.01 to 10 |
| CCCc1nc(=O)c(S(=O)(=O)c2ccc(-c3ccc(F)nc3C)cc2)c(O)n1[C@@H](COC)c1ccccc1 [Example 177, 5-[4-(6-fluoro-2-methylpyridin-3-yl)benzenesulfonyl]-6-hydroxy-1-[(1R)-2-methoxy-1-phenylethyl]-2-propyl-1,4-dihydropyrimidin-4-one] | 0.01 to 10 |
| COC[C@@H](c1ccccc1)n1c(CC2CC2)nc(=O)c(S(=O)(=O)c2ccc(-c3ccncc3C)cc2)c1O [Example 178, 2-(cyclopropylmethyl)-6-hydroxy-1-[(1R)-2-methoxy-1-phenylethyl]-5-[4-(3-methylpyridin-4-yl)benzenesulfonyl]-1,4-dihydropyrimidin-4-one] | 0.01 to 10 |
| COC[C@@H](c1ccccc1)n1c(CC2CC2)nc(=O)c(S(=O)(=O)c2ccc(-c3ccnc(F)c3C)cc2)c1O [Example 179, 2-(cyclopropylmethyl)-5-[4-(2-fluoro-3-methylpyridin-4-yl)benzenesulfonyl]-6-hydroxy-1-[(1R)-2-methoxy-1-phenylethyl]-1,4-dihydropyrimidin-4-one] | 0.01 to 10 |
| COC[C@@H](c1ccccc1)n1c(CC2CC2)nc(=O)c(S(=O)(=O)c2ccc(-c3cccnc3C)cc2)c1O [Example 180, 2-(cyclopropylmethyl)-6-hydroxy-1-[(1R)-2-methoxy-1-phenylethyl]-5-[4-(2-methylpyridin-3-yl)benzenesulfonyl]-1,4-dihydropyrimidin-4-one] | 0.01 to 10 |
